Experiments:
[1] = test system: Eimeria maxima (E. maxima) protozoa (sporozoites); assay: Acid resistance of violacein: protozoal death rate after acid exposure; format: cell-based
Experimental: In the present example, the acid resistance of the violacein was to be evaluated. […] Then, it was neutralized (pH 7.0) by adding sodium hydroxide (NaOH) solution, and 200,000 Eimeria maxima (E. maxima) protozoa (sporozoites) were exposed to the violacein at various concentrations of 0.1 to 100 ppm diluted using PBS solution, and they were reacted at a temperature of 41° C. for 4 hours. In Table 11, the control group means a violacein treatment group without treating the acidic condition, and the protozoa alone means a group to which violacein was not treated.

[2] = test system: Eimeria maxima (E. maxima) protozoa; assay: Heat resistance of violacein: protozoal death rate after heat exposure; format: cell-based
Experimental: In the present example, the heat resistance of the violacein was to be evaluated. […] 200,000 Eimeria maxima (E. maxima) protozoa were reacted to the violacein at various concentrations of 0.1 to 100 ppm at a temperature of 41° C. for 4 hours, and the protozoal death rate (%) was measured by the similar method to Example 3 above, and this was shown in FIG. 5 and Table 12. In Table 12 below, the control group means a violacein solution without treating the high temperature condition, and the protozoa alone means a group to which violacein was not treated.

[3] = In vivo safety evaluation: violacein content remaining in body after feeding (LC/MS); conditions: chicken (broiler), cecum luminal intestinal contents, oral, 50 ppm in feed; broilers fed feed comprising 50 ppm violacein for 7 days; read-out: Violacein content (mg/kg), Cecum luminal intestinal contents
Experimental: The safety evaluation of violacein was conducted in a breeding facility under the condition described in Example 1. At 7 days of age, broilers were fed a feed comprising 50 ppm violacein for 7 days, and an autopsy was conducted at 14 days of age, and the feed, appendix luminal intestinal contents, blood, spleen, liver and kidney were collected. For the feed used in formulation with the violacein, Daehanfeed Al-Choi product was used.
Each sample of the collected tissue was tested for the content of violacein through the HPLC method. For feed pretreatment, 1 g of each treatment group was weighed and diluted by adding 10 ? of MTBE solution, and then sonication was progressed for 1 hour, and filtration was performed using a […] syringe filter. Then, after evaporating the filtered sample for 1 hour, 1 ? , of 100% methanol was added. In addition, sonication was conducted for 1 minute, and it not dissolved, the supernatant was filtered once more using a […] syringe filter, and then placed in a vial for analysis. […] Then, the samples in which pretreatment was completed were analyzed using a set LC/MS instrument to measure the amount of violacein remaining in a body after feeding, and the result was shown in Table 13 below. In Table 13, ND (not detected) means not detected.

## O=C1N=c2ccccc2=C1c1cc(-c2c[nH]c3ccc(O)cc23)[nH]c1O [Violacein, 3-(2-(5-Hydroxyindol-3-yl)-5-oxo-2-pyrrolin-4-ylidene)-2-indolinone]
[1]; Control group (no acidic condition), 0.1 ppm
  Death rate according to violacein treatment condition: 64%
[1]; Control group (no acidic condition), 1 ppm
  Death rate according to violacein treatment condition: 85%
[1]; Control group (no acidic condition), 10 ppm
  Death rate according to violacein treatment condition: 100%
[1]; Control group (no acidic condition), 100 ppm, 41° C. 4 hours
  Death rate according to violacein treatment condition: 100.00%
[1]; acidic pH, 40° C., 1 hour, then neutralized
  Acid resistance (killing efficacy after strong acidic condition): did not lose the killing efficacy
[1]; pH 2, 1 h, 0.1 ppm
  Death rate according to violacein treatment condition: 64%
[1]; pH 2, 1 h, 1 ppm
  Death rate according to violacein treatment condition: 84%
[1]; pH 2, 1 h, 10 ppm
  Death rate according to violacein treatment condition: 99%
[1]; pH 2, 1 h, 100 ppm
  Death rate according to violacein treatment condition: 100.00%
[1]; pH 2.5, 1 h, 0.1 ppm
  Death rate according to violacein treatment condition: 61%
[1]; pH 2.5, 1 h, 1 ppm
  Death rate according to violacein treatment condition: 83%
[1]; pH 2.5, 1 h, 10 ppm
  Death rate according to violacein treatment condition: 99%
[1]; pH 2.5, 1 h, 100 ppm
  Death rate according to violacein treatment condition: 100.00%
[1]; pH 3, 1 h, 0.1 ppm
  Death rate according to violacein treatment condition: 63%
[1]; pH 3, 1 h, 1 ppm
  Death rate according to violacein treatment condition: 86%
[1]; pH 3, 1 h, 10 ppm
  Death rate according to violacein treatment condition: 99%
[1]; pH 3, 1 h, 100 ppm
  Death rate according to violacein treatment condition: 100.00%
[2]; 85° C., 10 min, 0.1 ppm
  Death rate according to violacein treatment condition: 62%
[2]; 85° C., 10 min, 1 ppm
  Death rate according to violacein treatment condition: 89%
[2]; 85° C., 10 min, 10 ppm
  Death rate according to violacein treatment condition: 99%
[2]; 85° C., 10 min, 100 ppm
  Death rate according to violacein treatment condition: 100%
[2]; 90° C., 10 min, 0.1 ppm
  Death rate according to violacein treatment condition: 65%
[2]; 90° C., 10 min, 1 ppm
  Death rate according to violacein treatment condition: 88%
[2]; 90° C., 10 min, 10 ppm
  Death rate according to violacein treatment condition: 99%
[2]; 90° C., 10 min, 100 ppm
  Death rate according to violacein treatment condition: 100%
[2]; 95° C., 10 min, 0.1 ppm
  Death rate according to violacein treatment condition: 69%
[2]; 95° C., 10 min, 1 ppm
  Death rate according to violacein treatment condition: 90%
[2]; 95° C., 10 min, 10 ppm
  Death rate according to violacein treatment condition: 99%
[2]; 95° C., 10 min, 100 ppm
  Death rate according to violacein treatment condition: 100%
[2]; Control group (no high temperature), 0.1 ppm
  Death rate according to violacein treatment condition: 64%
[2]; Control group (no high temperature), 1 ppm
  Death rate according to violacein treatment condition: 85%
[2]; Control group (no high temperature), 10 ppm
  Death rate according to violacein treatment condition: 100%
[2]; Control group (no high temperature), 100 ppm, 41° C. 4 hours
  Death rate according to violacein treatment condition: 100%
[2]; high temperature (80 to 95° C.), 10 minutes
  Heat resistance (killing efficacy after high temperature): the protozoal killing efficacy of violacein did not appear
[3]
  concentration at 7 days of feeding: 2100 ng/g
